Laboratory results: article PMC3199943, “Screening the MayBridge Rule of 3 Fragment Library for Compounds That Interact with the Trypanosoma brucei myo-Inositol-3-Phosphate Synthase and/or Show Trypanocidal Activity” (Molecular Biology International, 2011)
Read-outs that look alike come from different tables or passages of the source.

Experiments:
A549 cells = test: Cytotoxicity against A549 cells, Alamar Blue; type: cell-based; conditions: Supplementary Table 1, compound 0.5 mM, percentage of controls (n=1); for viability at 500 µM: Homo sapiens, A549, 65 h
How it was run: (§1)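 Seed HeLa/A549 at 2 × 10^4 cells/well in DMEM/10% FCS/2 mM L-Gln; treat ~65 h; add Alamar Blue, 5 h more.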

TbINO1 = molecular target: T1, TbINO1 (Trypanosoma brucei brucei, UniProt Q5QQ46); test: biochemical; type: binding
T1 sequence (Q5QQ46 1-528): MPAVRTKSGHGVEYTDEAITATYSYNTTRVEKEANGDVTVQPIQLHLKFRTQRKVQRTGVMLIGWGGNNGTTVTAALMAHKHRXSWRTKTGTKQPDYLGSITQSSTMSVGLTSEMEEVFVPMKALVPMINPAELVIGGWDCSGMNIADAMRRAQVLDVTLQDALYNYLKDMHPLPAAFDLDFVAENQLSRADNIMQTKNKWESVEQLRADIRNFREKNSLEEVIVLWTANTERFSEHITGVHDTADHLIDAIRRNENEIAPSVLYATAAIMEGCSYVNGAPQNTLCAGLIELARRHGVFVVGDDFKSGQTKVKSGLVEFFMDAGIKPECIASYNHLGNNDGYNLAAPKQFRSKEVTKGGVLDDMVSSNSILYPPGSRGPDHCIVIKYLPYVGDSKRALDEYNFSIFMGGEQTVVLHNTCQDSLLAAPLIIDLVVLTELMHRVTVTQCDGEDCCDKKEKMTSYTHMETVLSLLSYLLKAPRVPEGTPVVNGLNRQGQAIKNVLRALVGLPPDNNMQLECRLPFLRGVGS

HeLa cells = test: cells; conditions: for viability at 500 µM: Homo sapiens, HeLa, 65 h; for HeLa Cells Alamar Blue: Supplementary Table 1
How it was run: as §1

[1] = read-out: Tb Ino1 Tm Shift [˚C]
[2] = read-out: HeLa Cells Alamar Blue
[3] = Supplementary Table 1, compound 1mM, mean ± SD from Boltzman curve fitting
[4] = compound 0.5 mM, percentage of controls, mean ± SD (n=3) or SE (n=2)
[5] = read-out: HeLa Cells Alamar Blue, Supplementary Table 1, compound 0.5 mM, percentage of controls, mean ± SD (n=3) or SE (n=2)
[6] = read-out: HeLa Cells Alamar Blue (% survival)
[7] = Supplementary Table 1, compound 1mM, mean ± SD from Boltzman curve fitting, read-out: Tb Ino1 Tm Shift [˚C]

ΔTm at 1000 µM (TbINO1; [1]) [°C]	Structure (SMILES)	viability at 500 µM (A549 cells) [%]	viability at 500 µM (HeLa cells; [2]) [%]	other results
1.23 ± 0.07	O=C(O)CCc1ccccc1O [compound 323, 3‐(2‐hydroxyphenyl)propanoic acid]	110	113 ± 2.8	
0.18 ± 0.08	OCc1cccc(N2CCOCC2)c1 [compound 579, (3‐morpholinophenyl)methanol]	101	100 ± 13.5	
0.14 ± 0.07	O=C(O)c1ccccc1-c1cccnc1 [compound 613, 2‐pyrid‐3‐ylbenzoic acid]	59.8	80 ± 5.6	
0.46 ± 0.06	c1cnc2c(c1)OCCN2 [compound 118, 3,4‐dihydro‐2H‐pyrido[3,2‐b][1,4]oxazine]	92.3	84.1 ± 18	
0.27 ± 0.06	Nc1cc2ccccc2cn1 [compound 153, isoquinolin‐3‐amine]	118	88.5 ± 16.5	
0.14 ± 0.08	COC(=O)c1ccccc1C [compound 183, methyl 2‐methylbenzoate]	51	114 ± 4.3	
0.8 ± 0.05	CCc1cccc(C(C)=O)c1 [compound 174, 1‐(3‐ethylphenyl)ethan‐1‐one]	79.2	100 ± 7.3	
0.01 ± 0.05	OCc1cc2ccccc2s1 [compound 301, 1‐benzothiophen‐2‐ylmethanol]	71	90.7 ± 4.5	
0.04 ± 0.04	Nc1cccc(-c2cccs2)c1 [compound 403, 3‐(2‐thienyl)aniline]	52.3	49.1 ± 15.7	
1.22 ± 0.09	O=C(O)CCc1ccco1 [compound 131, 3‐(2‐furyl)propanoic acid]	98.1	69.8 ± 21.4	
1.25 ± 0.09	OCc1cccnc1N1CCCCC1 [compound 572, (2‐piperidino‐3‐pyridinyl)methanol]	80.1	65.1 ± 5.7	
1.11 ± 0.24	N#CCc1ccccn1 [compound 46, 2‐(2‐pyridyl)acetonitrile]	82.6	63.2 ± 17.9	
0.36 ± 0.07	OCc1ccncc1 [compound 18, 4‐pyridinylmethanol]	102	104 ± 3.9	
0.03 ± 0.07	OCc1ccnc(N2CCCCC2)c1 [compound 568, (2‐piperidinopyrid‐4‐yl)methanol]	103	94.5 ± 18.7	

More lines, now with the values behind:

Structure (SMILES)	ΔTm at 1000 µM (TbINO1; [1]) [°C]	viability at 500 µM (A549 cells) [%]	viability at 500 µM (HeLa cells; [2]) [%]	other results
CCOC(=O)C1CSCCN1 (centres unmarked) [compound 402, ethyl thiomorpholine‐3‐carboxylate]	0.45 ± 0.08	95.2	107 ± 18.3	
CN1CCc2c(sc(N)c2C#N)C1 [compound 581, 2‐amino‐6‐methyl‐4,5,6,7‐tetrahydrothieno[2,3‐c]pyridine‐3‐carbonitrile]				A549 Cells Alamar Blue (A549 cells): 82.2 percentage of controls; Tb Ino1 Tm Shift [˚C] (TbINO1; [3]): 1.39 ± 0.08 °C; HeLa Cells Alamar Blue (HeLa cells; [4]): 85.8 ± 12.8 percentage of controls
O=C(O)c1cc2sccc2s1 [compound 479, thieno[3,2‐b]thiophene‐2‐carboxylic acid]	0.21 ± 0.07	102	109 ± 11.4	
Cc1cc(C(=O)O)c(C)o1 [compound 130, 2,5‐dimethyl‐3‐furoic acid]	0.62 ± 0.08	121	84.7 ± 0.7	
Oc1ccc(F)cc1 [compound 29, 4‐fluorophenol]	0.23 ± 0.08	88.4		viability at 500 µM (HeLa cells; [5]): 96.2 ± 7.7%
COC(=O)c1ccc(C)c(Cl)c1 [compound 484, methyl 3‐chloro‐4‐methylbenzoate]	0.1 ± 0.07	120	112 ± 12	
O=C1CC(C(=O)O)c2ccccc21 (centres unmarked) [compound 409, 3‐oxoindane‐1‐carboxylic acid]	0.03 ± 0.07	92	107 ± 10.9	
CC(C)(N)CN1CCCC1 [compound 142, 2‐methyl‐1‐(1‐pyrrolidinyl)‐2‐propanamine]				A549 Cells Alamar Blue (A549 cells): 96.3 percentage of controls; Tb Ino1 Tm Shift [˚C] (TbINO1; [3]): 0.13 ± 0.07 °C; HeLa Cells Alamar Blue (HeLa cells; [4]): 89.9 ± 8.9 percentage of controls
Cc1cc(C(N)=S)no1 [compound 140, 5‐methylisoxazole‐3‐carbothioamide]	0.2 ± 0.07	110	89.2 ± 6.5	
O=C1CC(c2ccccc2)=NO1 [compound 272, 3-phenyl-4,5-dihydroisoxazol-5-one]		61.5	89.4 ± 3.9	ΔTm at 1000 µM (TbINO1; read-out: TbIno1 Tm shift [°C]): 3.56 ± 0.06 °C; viability at 500 µM (HeLa cells; [6]): 89.4 ± 3.9%
Cc1nc(-c2ccc(N)cc2)cs1 [compound 547, 4‐(2‐methyl‐1,3‐thiazol‐4‐yl)phenylamine]	0.12 ± 0.07	63.2	74.3 ± 11	
Cn1ccc(C(F)(F)F)n1 [compound 181, 1‐methyl‐3‐(trifluoromethyl)‐1H‐pyrazole]	0.11 ± 0.08	58.4	115 ± 9.9	
CNCc1cc(-c2ccccc2)nn1C [compound 631, N‐methyl‐N‐[(1‐methyl‐3‐phenyl‐1H‐pyrazol‐5‐yl)methyl]amine]				A549 Cells Alamar Blue (A549 cells): 100.2 percentage of controls; Tb Ino1 Tm Shift [˚C] (TbINO1; [3]): 0.5 ± 0.08 °C; HeLa Cells Alamar Blue (HeLa cells; [4]): 66.2 ± 16.3 percentage of controls
Cc1cc(N)n(C)n1 [compound 26, 1,3‐dimethyl‐1H‐pyrazol‐5‐amine]	0.54 ± 0.07	70.1	85.5 ± 9.4	
CN1CCN(Cc2ccccc2N)CC1 [compound 670, 2‐[(4‐methylpiperazin‐1‐yl)methyl]aniline]		121	94.6 ± 8.5	ΔTm at 1000 µM (TbINO1; [7]): 0.05 ± 0.07 °C
Cc1cccc(C(N)=O)c1C [compound 176, 2,3‐dimethylbenzamide]	0.06 ± 0.07	68.7	88.2 ± 12.4	
COc1cccc(N)c1 [compound 61, 3‐methoxyaniline]		69.2	48.7 ± 8.9	ΔTm at 1000 µM (TbINO1; [7]): 0.19 ± 0.07 °C
O=C1CCOCC1 [compound 12, tetrahydro‐4H‐pyran‐4‐one]	0.23 ± 0.07	97.4	100 ± 3.5	
Cc1occc1C(=O)O [compound 75, 2-methyl-3-furoic acid]		110	63.3 ± 5.9	ΔTm at 1000 µM (TbINO1; read-out: TbIno1 Tm shift [°C]): 3.89 ± 0.07 °C; viability at 500 µM (HeLa cells; [6]): 63.3 ± 5.9%
Cc1nc(C(=O)O)cs1 [compound 146, 2‐methyl‐1,3‐thiazole‐4‐carboxylic acid]	0.1 ± 0.08	109	87 ± 6.4	
Cl.c1ccc2c(c1)CCNC2 [compound 343, 1,2,3,4‐tetrahydroisoquinoline hydrochloride]				A549 Cells Alamar Blue (A549 cells): 86.3 percentage of controls; Tb Ino1 Tm Shift [˚C] (TbINO1; [3]): 0.37 ± 0.06 °C; HeLa Cells Alamar Blue (HeLa cells; [4]): 83.5 ± 7.8 percentage of controls
Cc1cc(N)no1 [compound 9, 5‐methylisoxazol‐3‐amine]	0.13 ± 0.06	112		viability at 500 µM (HeLa cells; [5]): 105 ± 6.2%
Nc1ccc2c(c1)C(=O)OC2 [compound 175, 6‐amino‐1,3‐dihydroisobenzofuran‐1‐one]	0.04 ± 0.08	79.5	106 ± 17	
NCc1cccc(CN2CCCC2)c1 [compound 550, [3‐(1‐pyrrolidinylmethyl)phenyl]methanamine]				A549 Cells Alamar Blue (A549 cells): 108.7 percentage of controls; Tb Ino1 Tm Shift [˚C] (TbINO1; [3]): 0.03 ± 0.07 °C; HeLa Cells Alamar Blue (HeLa cells; [4]): 47.8 ± 11.7 percentage of controls
Nc1ccc2oc3c(c2c1)CCCC3 [compound 516, 6,7,8,9‐tetrahydrodibenzo[b,d]furan‐2‐amine]				A549 Cells Alamar Blue (A549 cells): 68.2 percentage of controls; Tb Ino1 Tm Shift [˚C] (TbINO1; [3]): 0.2 ± 0.07 °C; HeLa Cells Alamar Blue (HeLa cells; [4]): 108 ± 5.2 percentage of controls
CC1OCCC1=O (centres unmarked) [compound 11, 2‐methyltetrahydrofuran‐3‐one]	0.77 ± 0.06	85.3	101 ± 5.4	
Cc1nn(C)c(C)c1N [compound 72, 1,3,5‐trimethyl‐1H‐pyrazol‐4‐amine]	1.19 ± 0.08	70.9	78.5 ± 0.8	
N#CCCNCC1CCCO1 (centres unmarked) [compound 224, 3‐[(tetrahydrofuran‐2‐ylmethyl)amino]propanenitrile]				A549 Cells Alamar Blue (A549 cells): 60 percentage of controls; Tb Ino1 Tm Shift [˚C] (TbINO1; [3]): 0.21 ± 0.09 °C; HeLa Cells Alamar Blue (HeLa cells; [4]): 96.5 ± 13.7 percentage of controls
